From publication PMC8850458, “The AUTOTAC chemical biology platform for targeted protein degradation via the autophagy-lysosome system” (Nature Communications, 2022) come the findings set out here.

Several values for one entry are separate records, joined by “and”; a condition that tells them apart may be missing. Identical values can stand only once. Like-named read-outs stand apart in the source and are kept apart here.

Data set [1] has as its system Ub-conjugated aggregates. As to the kind of experiment: WB autophagic flux of Ub-conjugated aggregates in HEK293T cells under proteasomal inhibition. In kind it is cell-based. How it is done:
Fig. 4 Targeted autophagic delivery and degradation of misfolded protein cargoes using AUTOTACs with aggregate-binding warhead. a A model illustrating the mode of action of aggregate-targeting AUTOTAC. b Chemical structures of PBA-1105, PBA-1106, Anle138b-F105 and PBA-1105b. c In vitro p62 oligomerization assay in HEK293T cells incubated with the indicated compounds in (b). d WB in HEK293T cells treated with MG132 (1 μM, 24 h), HCQ (10 μM, 24 h), PBA-1105, YTK-1105, and PBA (1 μM, 24 h). e Identical to (d), but with Anle-F105. f ICC of HeLa cells treated with HCQ (10 μM, 24 h), MG132 (2 μM, 18 h) or both in the presence of PBA-1106, YOK-1106 or PBA (1 μM, 24 h). Scale bar, 10 μm. g Quantification of (f) (n = 3, 50 cells). h ICC of HeLa cells treated with Anle138b-F105 (1 μM, 24 h). Scale bar, 10 μm. i Quantification of (h) (n = 3, 50 cells). When indicated, n = 3 biologically independent experiments each counting 50 cells. Data are presented as mean values ± SD where relevant. P-values (from a two-sided unpaired t test): ***P < 7.66E−05. Source data are provided with this paper.
Adherent cells were washed with phosphate-buffered saline (PBS) and cell pellets were lysed in SDS-based sample buffer (277.8 mM Tris-HCI, pH 6.8, 4.4% LDS, 44.4% (v/v) glycerol) containing beta-mercaptoethanol. […] Densitometry of developed bands was measured and analyzed with ImageJ (NIH, Bethesda).

Data set [2] has as its target tauP301L (Homo sapiens, UniProt P10636, P618L). As to the kind of experiment: RIPA insoluble/soluble fractionation of brains of hTauP301L-BiFC mice, human tau. To be noted: for AVG (%) Insoluble hTau / AVG (%) Soluble hTau: control 100.
For data set [3], the target named is T1, estrogen receptor beta (ERβ) (Homo sapiens, UniProt Q92731).
T1 construct: Targeted autophagic degradation of endogenous oncoproteins by AUTOTAC; endogenous in cells; host or cells: HEK293T, ACHN, MCF7
As to the kind of experiment: Western blot degradation of ERβ. To be noted: for ERβ band normalized to control, AVG % / ERβ band (PHTPP) normalized to GAPDH and to control, percentage: 293T; for ERβ band normalized to control, AVG % / ERβ band (PHTPP) normalized to GAPDH and to control, percentage / DC50: 24 h; for ERβ band (PHTPP) normalized to GAPDH and to control, percentage: single experiments. Format: cell-based. How it is done:
Adherent cells were washed with phosphate-buffered saline (PBS) and cell pellets were lysed in SDS-based sample buffer (277.8 mM Tris-HCI, pH 6.8, 4.4% LDS, 44.4% (v/v) glycerol) containing beta-mercaptoethanol. Alternatively, cell pellets or protein supernatants were lysed in 5X Laemmli sample buffer. Whole-cell lysates were separated using SDS-PAGE, and transferred onto polyvinyllidene difluoride membranes at 100 V for 2 h at 4 °C. The membrane was incubated with a blocking solution consisting 4% skim milk in PBS solution for 30 min at room temperature and incubated with primary antibodies overnight, followed by incubation with host-specific HRP-conjugated secondary antibodies (1:10000 dilution). For signal detection, the membrane was developed with a mixture of ECL solution (Thermo Fisher Scientific) using X-ray films. Densitometry of developed bands was measured and analyzed with ImageJ (NIH, Bethesda).
(A western blot detects proteins with antibodies after separation by electrophoresis.)

For data set [4], the system named is ERβ signaling (EGFR, p-ERK/ERK, p-Akt/Akt). As to the kind of experiment: WB of ERβ downstream signaling in E2-stimulated LNCaP cells. To be noted: levels of EGFR. Format: cell-based. The source says:
To assess the therapeutic efficacy of autophagy-targeting degraders, we compared the downstream signaling of AR and ERβ in cells treated with either AUTOTACs or their cognate TBLs. Dihydrotestosterone (DHT) and estradiol (E2) are natural agonists that respectively bind AR and ERβ and induce their dimerization and nuclear translocation, resulting in transcriptional activation of downstream proteins[27],[28]. […] Next, we examined the potency of AUTOTACs in cancer cell growth and progression.
Adherent cells were washed with phosphate-buffered saline (PBS) and cell pellets were lysed in SDS-based sample buffer (277.8 mM Tris-HCI, pH 6.8, 4.4% LDS, 44.4% (v/v) glycerol) containing beta-mercaptoethanol. Alternatively, cell pellets or protein supernatants were lysed in 5X Laemmli sample buffer. Whole-cell lysates were separated using SDS-PAGE, and transferred onto polyvinyllidene difluoride membranes at 100 V for 2 h at 4 °C.

Data set [5] in a line: WST-based cell viability assay in ACHN cells. To be noted: human, ACHN cells; for viability at 0.01 µM / viability at 0.1 µM / viability at 1 µM / viability at 10 µM / viability at 50 µM / viability at 100 µM: ACHN.
Data set [6] can be described thus: WST-based cell viability assay in LNCaP cells. To be noted: human, LNCaP cells.
Data set [7] relates to LNCaP cells. As to the kind of experiment: WST-based cell viability assay in LNCaP cells. To be noted: LNcaP, duplicates; for WST assay raw reading: listed as Vinclo.-2204.
Setting [8] is: duplicates, read-out: WST assay viability relative to con = 100.
Setting [9] is: read-out: WST assay viability, AVG %.
The mark [10] stands for this setting: WST assay viability relative to con = 100, LNcaP, duplicates.
[11] abbreviates: WST assay viability, AVG %, LNcaP.

Sequence of tauP301L (P10636 1-441 isoform P10636-8 P301L): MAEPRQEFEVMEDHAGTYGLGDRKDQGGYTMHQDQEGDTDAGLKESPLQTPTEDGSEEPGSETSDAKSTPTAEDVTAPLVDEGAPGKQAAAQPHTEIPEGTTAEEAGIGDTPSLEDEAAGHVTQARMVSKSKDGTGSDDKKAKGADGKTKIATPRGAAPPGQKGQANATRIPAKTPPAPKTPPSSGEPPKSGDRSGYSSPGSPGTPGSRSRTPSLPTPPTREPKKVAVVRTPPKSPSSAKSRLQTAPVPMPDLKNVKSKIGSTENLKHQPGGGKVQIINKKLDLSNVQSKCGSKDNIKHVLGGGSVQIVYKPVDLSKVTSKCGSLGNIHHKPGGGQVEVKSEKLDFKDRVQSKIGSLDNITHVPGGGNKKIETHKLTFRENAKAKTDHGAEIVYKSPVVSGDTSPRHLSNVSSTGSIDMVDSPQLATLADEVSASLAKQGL
T1 sequence (Q92731 whole entry): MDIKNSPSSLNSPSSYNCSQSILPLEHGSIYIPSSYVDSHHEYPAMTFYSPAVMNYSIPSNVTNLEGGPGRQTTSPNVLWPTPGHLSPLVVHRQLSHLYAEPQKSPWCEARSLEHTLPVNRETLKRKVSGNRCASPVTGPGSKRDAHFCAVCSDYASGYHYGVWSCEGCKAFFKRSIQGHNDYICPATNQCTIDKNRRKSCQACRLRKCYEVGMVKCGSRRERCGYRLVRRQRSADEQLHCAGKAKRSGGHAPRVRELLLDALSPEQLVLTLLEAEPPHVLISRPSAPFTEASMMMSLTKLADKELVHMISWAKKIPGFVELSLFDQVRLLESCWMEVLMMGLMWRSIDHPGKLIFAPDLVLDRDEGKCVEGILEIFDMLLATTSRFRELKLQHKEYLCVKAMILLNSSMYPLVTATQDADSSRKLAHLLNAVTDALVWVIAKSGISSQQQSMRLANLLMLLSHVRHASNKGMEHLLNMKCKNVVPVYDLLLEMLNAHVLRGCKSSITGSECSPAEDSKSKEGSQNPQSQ

Take `O=C(CCCc1ccccc1)NCCOCCOCCOCCNCc1ccc(OCc2ccccc2)c(OCc2ccccc2)c1` [PBA-1105]: the “autophagic flux index of Ub-conjugated aggregates” value in data set [1] (1 μM 24 h, MG132 1 μM, HCQ 10 μM, control index 1) is listed as 2.2. In addition, the “duration of sustained autophagic flux of Ub-conjugated aggregates” value in data set [1] (1 μM, MG132) was “at least 48 h”. The “AVG (%) Insoluble hTau” value turned out to be 43.8995% in data set [2] (20 mg/kg) and 10.5836% in data set [2] (50 mg/kg). Moreover, the “AVG (%) Soluble hTau” value was determined as 87.1538% in data set [2] (20 mg/kg) and 66.7118% in data set [2] (50 mg/kg). Also, the “soluble tau species in brain” value in data set [2] (hTauP301L-BiFC mice, i.p. 20 or 50 mg/kg) is “little if any reduction”. Also, in data set [2] (hTauP301L-BiFC mice, i.p. 20 or 50 mg/kg, three times per week for one month), the “detergent-insoluble tauP301L in brain” value is reported as “marked clearance”.
As a reminder, the viability is a read-out of living cells in per cent, often relative to untreated cells. What is called IC50 is the concentration needed to halve the response being measured. As to `O[C@H](CNCCOCCOCCOc1ccc(-c2c(-c3ccccc3)nn3c(C(F)(F)F)cc(C(F)(F)F)nc23)cc1)COc1ccc(OCc2ccccc2)c(OCCCc2ccccc2)c1` [PHTPP-1304], the “ERβ band normalized to control, AVG %” value turned out to be 52.5102% in data set [3] (1nM); 17.5552% in data set [3] (10nM); 4.912% in data set [3] (100nM); 9.556% in data set [3] (1uM); 4.237% in data set [3] (2.5uM). Moreover, the “ERβ band (PHTPP) normalized to GAPDH and to control, percentage” value in data set [3] (1nM) was 58.6192% and 52.1272% and 46.7843%; in data set [3] (10nM) it was 19.5411% and 16.0071% and 17.1174%; in data set [3] (100nM), 9.1943% and 5.039% and 0.5025%; in data set [3] (2.5uM), 4.5765% and 5.279% and 2.856%. In addition, the DC50 in data set [3] (ACHN renal carcinoma cells, read-out: DC50 of ERβ) is below 100 nM; in data set [3] (HEK293T cells, read-out: DC50 (half-degrading concentration) of ERβ), ~2 nM and 1.48 nM; in data set [3] (MCF-7 breast cancer cells, read-out: DC50 of ERβ), below 100 nM. Besides, the “Dmax, 24 hr (concentration of maximal clearance at the 24 h mark) of ERβ” value in data set [3] (HEK293T cells) was in the range of 10 to 100 nM. In addition, the “degradation of ERβ under RNA interference of either p62 or ATG5” value in data set [3] (HEK293T, 0.1 μM 24 h, siRNA 40 nM 48 h) is “completely abolished”. Moreover, the “persistence of ERβ degradation post-washout” value in data set [3] (MCF7, MG132 1 μM, compound 500 nM 24 h, then washout) is “at least 8 h”. In addition, the “DC50 and Dmax values of ERβ degradation” value in data set [3] (MCF7 cells, proteasomal inhibition (MG132 1 μM, 24 h)) is reported as “subnanomolar”. Besides, in data set [4], the “inhibition of ERβ signaling relative to its TBL” value was 10 folds. The viability at 0.01 µM in data set [5] (setting [8]) stood at 101%; in data set [5] (setting [9]), 99.6%. The viability at 0.1 µM in data set [5] (setting [8]) was 102%; in data set [5] (setting [9]), 101%. Further, the viability at 1 µM in data set [5] (setting [8]) and in data set [5] (setting [9]) was 96.2% each time. Besides, the viability at 10 µM in data set [5] (setting [8]) was found to be 2.13%; in data set [5] (setting [9]) it was 2.08%. The viability at 50 µM in data set [5] (setting [8]) came to 12.3%; in data set [5] (setting [9]), 11.6%. For the same compound, the viability at 100 µM in data set [5] (setting [8]) was 14.8%; in data set [5] (setting [9]) it was 15.8%. The IC50 in data set [5] (WST-based viability assay, read-out: cytotoxicity IC50) amounted to 3300 nM.
For the compound `C=CC(C)(O)C(=O)N(C(=O)NCCOCCOCCNCC(O)COc1ccc(OCCc2ccccc2)c(OCCc2ccccc2)c1)c1cc(Cl)cc(Cl)c1` (stereo not drawn) [VinclozolinM2-2204], the IC50 in data set [6] is 4700 nM. Also, the viability at 0.01 µM in data set [6] (setting [10]) was determined as 93.5%; in data set [6] (setting [11]), 92.9%. The viability at 0.1 µM in data set [6] (setting [10]) stood at 92.5%; in data set [6] (setting [11]) it was 91.6%. The results for the viability at 1 µM in data set [6] (setting [10]) and in data set [6] (setting [11]) were 89.8% and 89.9%, respectively. The viability at 10 µM in data set [6] (setting [10]) was determined as 24.6%; in data set [6] (setting [11]), 30.9%. Also, the viability at 50 µM in data set [6] (setting [10]) is 1.83%; in data set [6] (setting [11]), 1.93%. Besides, the viability at 100 µM was found to be 3.03% in data set [6] (setting [10]) and 3.08% in data set [6] (setting [11]). The “WST assay raw reading” value is 1.976 and 1.95 in data set [7] (0.01uM); 1.955 and 1.92 in data set [7] (0.1uM); 1.902 and 1.905 in data set [7] (1uM); 0.595 and 0.848 in data set [7] (10uM); 0.14 and 0.144 in data set [7] (50uM); 0.164 and 0.166 in data set [7] (100uM). Further, the “WST assay viability relative to con = 100” value in data set [7] (0.01uM, listed as Vinclo.-2204, 0.01 µM) was determined as 92.2257; in data set [7] (0.1uM, listed as Vinclo.-2204, 0.1 µM), 90.7275; in data set [7] (1uM, listed as Vinclo.-2204, 1 µM), 89.9784; in data set [7] (10uM, listed as Vinclo.-2204, 10 µM) it was 37.1899; in data set [7] (50uM, listed as Vinclo.-2204, 50 µM) it was 2.031; in data set [7] (100uM, listed as Vinclo.-2204, 100 µM), 3.13.
